Measured values published in patent publication US11345711B2, “8,9-dihydroimidazo[1,2-a]pyrimido[5,4-e]pyrimidin-5(6H)-ones” (IMPACT THERAPEUTICS (SHANGHAI), INC, priority 2016, dated 2022).

Legend:
[1] = tested on: LoVo cells; experiment: MTT based cell viability assay on LoVo cells; details: Homo sapiens, LoVo, 72 h, 3 d, read-out: IC50, growth inhibition of LoVo cells
Description: Determination of the cell growth inhibiting activity of 6-(2-chlorophenyl)-2-((4-(4-methylpiperazin-1-yl)phenyl)amino)-8,9-dihydroimidazo[1,2-a]pyrimido[5,4-e]pyrimidin-5(6H)-one and analogs on LoVo cells using a MTT based cell viability assay
(§1) The thawed LoVo cells were cultured and passaged to the third generation, and the growth state was good and the confluence was about 90%, which began to be used in the experiment. The LoVo cells were digested with trypsin, centrifuged at 800 rpm for 5 min, the supernatant was discarded, resuspended with fresh culture medium, and counted. 6000 Cells are seeded to each well of a 96-well plate. The cells are incubated at 37° C. in a 5% CO2 cell culture incubator overnight. The tested sample (including the tested compound and the reference compound AZD1775) was diluted continuously to 8 concentrations (the last concentration was negative control of DMSO) with a 1:3 and 1:10 dilution in DMSO respectively: 10 μM, 3.3 μM, 1 μM, 0.33 μM, 0.1 μM, 0.033 μM, 0.01 μM, 0 μM (the final concentration of DMSO was 1%). 5 μL of each concentration was added to 120 μL of culture medium (25 times diluted), and the mixture was shaken well. The overnight cells were taken and the culture medium was removed, 195 μL of fresh culture medium was added to each well, and 5 μL of diluted culture medium containing the corresponding concentration of the tested sample was added respectively, and the culture plate was then placed in the 5% CO2 cell culture incubator at 37° C. for 3 d. After removing the original solution and adding 100 μL of fresh serum-free DMEM culture medium containing MTT (0.5 mg/mL) per well, the culture was continued. The original solution was removed after 4 hrs and 100 μl DMSO was added to each well. The 96-well cell culture plates were shaken away from light for 10 min and readed in a multifunctional reader at 552/630/690 nm to give absorption values (OD values). The data were analyzed using a commercial graphic software (Graph Pad Prism 5.0) and the inhibitory activity of the compound on cell proliferation was plotted in terms of cell survival and compound concentration. The IC50 values were fitted by the S-shaped dose-response curve equation as follows: Y=100/(1+10^(Log C-Log IC50)), where C was the concentration of testing compounds.

[2] = target: Wee1 (h) (Homo sapiens, UniProt P30291); experiment: Wee1 kinase (h) detection method, [γ-33P]-ATP filter assay; type: biochemical
Description: Determination of the inhibitory effect of 6-(2-chlorophenyl)-2-((4-(4-methylpiperazin-1-yl)phenyl)amino)-8,9-dihydroimidazo[1,2-a]pyrimido[5,4-e]pyrimidin-5(6H)-one and Analogs on the Enzyme Activity of Wee1 Kinase by Using the Wee1 Kinase (h) Detection Method
Then the stock solution of all compounds under test with 50× concentration in 100% DMSO was added to make the final concentration of 10/1/0.1/0.01 μM, and then mixed the mixture well. The reaction is initiated by the addition of the Mg/ATP mix. After incubation for 40 minutes at room temperature, the reaction is stopped by the addition of phosphoric acid to a concentration of 0.5%. […] Each compound sample is duplicated in duplicate. The negative control was lack of all the components of Wee1 enzyme, and the positive was addition of 30% phosphoric acid to terminate the reaction. The Wee1 inhibitor AZD1775 was detected at 10 μM at the same experiment condition.

[3] = tested on: NCI-H1299 cells; experiment: MTT based cell viability assay on NCI-H1299 cells; details: Homo sapiens, NCI-H1299 cells, read-out: IC50, growth inhibition of NCI-H1299 cells
Description: Determination of the cell growth inhibiting activity of 6-(2-chlorophenyl)-2-((4-(4-methylpiperazin-1-yl)phenyl)amino)-8,9-dihydroimidazo[1,2-a]pyrimido[5,4-e]pyrimidin-5(6H)-one and analogs on NCI-H1299 cells using a MTT based cell viability assay
as §1, with “NCI-H1299” for “LoVo”, “group,” for “medium,”, “1000” for “6000”, “1‰).” for “1%).”, “C−Log” for “C-Log”

Chain of Wee1 (h) (P30291 whole entry): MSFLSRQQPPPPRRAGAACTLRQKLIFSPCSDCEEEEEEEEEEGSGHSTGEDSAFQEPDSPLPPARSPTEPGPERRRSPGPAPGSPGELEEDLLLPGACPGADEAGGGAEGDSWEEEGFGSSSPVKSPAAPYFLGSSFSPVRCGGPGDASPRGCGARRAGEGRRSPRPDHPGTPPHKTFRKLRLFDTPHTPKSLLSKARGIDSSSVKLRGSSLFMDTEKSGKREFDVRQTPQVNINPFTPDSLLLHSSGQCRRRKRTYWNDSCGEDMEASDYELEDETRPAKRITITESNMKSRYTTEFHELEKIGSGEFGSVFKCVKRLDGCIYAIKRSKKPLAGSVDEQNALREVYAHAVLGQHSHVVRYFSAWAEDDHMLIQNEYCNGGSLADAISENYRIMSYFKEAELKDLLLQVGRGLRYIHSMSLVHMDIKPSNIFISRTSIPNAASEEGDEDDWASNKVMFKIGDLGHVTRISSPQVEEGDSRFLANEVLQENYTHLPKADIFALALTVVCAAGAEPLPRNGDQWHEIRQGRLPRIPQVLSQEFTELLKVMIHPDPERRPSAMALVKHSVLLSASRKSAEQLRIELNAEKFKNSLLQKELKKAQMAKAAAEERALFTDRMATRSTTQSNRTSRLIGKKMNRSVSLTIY

With `CN1CCN(c2ccc(Nc3ncc4c(n3)N3C(=NCC3(C)C)N(c3c(F)cccc3Cl)C4=O)cc2)CC1` [Example 28, 6-(2-Chloro-6-fluorophenyl)-9,9-dimethyl-2-((4-(4-methylpiperazin-1-yl)phenyl)amino)-8,9-dihydroimidazo[1,2-a]pyrimido[5,4-e]pyrimidin-5(6H)-one] the IC50 [1] was > 1 µM, the “Inh. (%) of Wee1 kinase enzyme activity” value ([2]; C 1 μm compound) was 67% and the IC50 [3] was > 3 µM.
In the case of `C[C@@H]1CN(c2ccc(Nc3ncc4c(n3)N3CCN=C3N(c3c(F)cccc3Cl)C4=O)cc2)C[C@H](C)O1` [Example 32, 6-(2-Chloro-6-fluorophenyl)-2-((4-((2S,6R)-2,6-dimethylmorpholino)phenyl)amino)-8,9-dihydroimidazo[1,2-a]pyrimido[5,4-e]pyrimidin-5(6H)-one], the IC50 [1] is reported as 0.836 µM, the “Inh. (%) of Wee1 kinase enzyme activity” value ([2]; C 0.01 μm compound) is reported as 19% and the “Inh. (%) of Wee1 kinase enzyme activity” value ([2]; C 0.1 μm compound) is reported as 69%. The “Inh. (%) of Wee1 kinase enzyme activity” value ([2]; C 1 μm compound) was 94% and the IC50 [3] was > 10 µM.
For `O=C1c2cnc(Nc3ccc(CN4CCOCC4)cc3)nc2N2CCN=C2N1c1c(F)cccc1Cl` [Example 33, 6-(2-Chloro-6-fluorophenyl)-2-((4-(morpholinomethyl)phenyl)amino)-8,9-dihydroimidazo[1,2-a]pyrimido[5,4-e]pyrimidin-5(6H)-one], the IC50 [1] was > 100 µM, the “Inh. (%) of Wee1 kinase enzyme activity” value ([2]; C 1 μm compound) was 87% and the IC50 [3] was > 10 µM.
With `C[C@@H]1CN(c2ccc(Nc3ncc4c(n3)N3CCN=C3N(c3c(F)cccc3Cl)C4=O)cc2)C[C@H](C)N1C` [Example 34, 6-(2-Chloro-6-fluorophenyl)-2-((4-((3S,5R)-3,4,5-trimethylpiperazin-1-yl)phenyl)amino)-8,9-dihydroimidazo[1,2-a]pyrimido[5,4-e]pyrimidin-5(6H)-one] the IC50 [1] was 0.349 µM, the “Inh. (%) of Wee1 kinase enzyme activity” value ([2]; C 0.01 μm compound) was 38% and the “Inh. (%) of Wee1 kinase enzyme activity” value ([2]; C 0.1 μm compound) was 93%. For the same molecule, the “Inh. (%) of Wee1 kinase enzyme activity” value ([2]; C 1 μm compound) was 97% and the IC50 [3] was 0.468 µM.
`CC(C)N1[C@H](C)CN(c2ccc(Nc3ncc4c(n3)N3CCN=C3N(c3c(F)cccc3Cl)C4=O)cc2)C[C@@H]1C` [Example 35, 6-(2-Chloro-6-fluorophenyl)-2-((4-((3S,5R)-4-isopropyl-3,5-dimethylpiperazin-1-yl)phenyl)amino)-8,9-dihydroimidazo[1,2-a]pyrimido[5,4-e]pyrimidin-5(6H)-one] was tested, and the IC50 [1] was 0.262 µM, the “Inh. (%) of Wee1 kinase enzyme activity” value ([2]; C 0.01 μm compound) was 27% and the “Inh. (%) of Wee1 kinase enzyme activity” value ([2]; C 0.1 μm compound) was 82%. For the same molecule, the “Inh. (%) of Wee1 kinase enzyme activity” value ([2]; C 1 μm compound) was 100% and the IC50 [3] was 0.287 µM.
`CN1CCN(c2ccc(Nc3ncc4c(n3)N3CCN=C3N(c3c(F)cccc3Cl)C4=O)c(F)c2)CC1` [Example 36, 6-(2-Chloro-6-fluorophenyl)-2-((2-fluoro-4-(4-methylpiperazin-1-yl)phenyl)amino)-8,9-dihydroimidazo[1,2-a]pyrimido[5,4-e]pyrimidin-5(6H)-one] was tested, and the IC50 [1] was > 100 µM, the “Inh. (%) of Wee1 kinase enzyme activity” value ([2]; C 1 μm compound) was 0% and the IC50 [3] was > 10 µM.
With `C[C@@H]1CN(c2ccc(Nc3ncc4c(n3)N3CCN=C3N(c3c(F)cccc3Cl)C4=O)c(F)c2)C[C@H](C)N1C` [Example 37, 6-(2-Chloro-6-fluorophenyl)-2-((2-fluoro-4-((3S,5R)-3,4,5-trimethylpiperazin-1-yl)phenyl)amino)-8,9-dihydroimidazo[1,2-a]pyrimido[5,4-e]pyrimidin-5(6H)-one] the IC50 [1] was > 100 µM, the “Inh. (%) of Wee1 kinase enzyme activity” value ([2]; C 1 μm compound) was 1% and the IC50 [3] was > 10 µM.
For `CN1CCN(c2ccc(Nc3ncc4c(n3)N3CCN=C3N(c3c(F)cccc3Cl)C4=O)c(Cl)c2)CC1` [Example 38, 6-(2-Chloro-6-fluorophenyl)-2-((2-chloro-4-(4-methylpiperazin-1-yl)phenyl)amino)-8,9-dihydroimidazo[1,2-a]pyrimido[5,4-e]pyrimidin-5(6H)-one], the IC50 [1] was > 100 µM, the “Inh. (%) of Wee1 kinase enzyme activity” value ([2]; C 1 μm compound) was 34% and the IC50 [3] was > 10 µM.
With `C[C@@H]1CN(c2ccc(Nc3ncc4c(n3)N3CCN=C3N(c3c(F)cccc3Cl)C4=O)c(Cl)c2)C[C@H](C)N1C` [Example 39, 6-(2-Chloro-6-fluorophenyl)-2-((2-chloro-4-((3S,5R)-3,4,5-trimethylpiperazin-1-yl)phenyl)amino)-8,9-dihydroimidazo[1,2-a]pyrimido[5,4-e]pyrimidin-5(6H)-one] the IC50 [1] was > 100 µM, the “Inh. (%) of Wee1 kinase enzyme activity” value ([2]; C 1 μm compound) was 28% and the IC50 [3] was > 10 µM.
`CN1CCN(c2ccc(Nc3ncc4c(n3)N3CCN=C3N(c3c(F)cccc3Cl)C4=O)c(C(F)(F)F)c2)CC1` [Example 40, 6-(2-Chloro-6-fluorophenyl)-2-((4-(4-methylpiperazin-1-yl)-2-(trifluoromethyl)phenyl)amino)-8,9-dihydroimidazo[1,2-a]pyrimido[5,4-e]pyrimidin-5(6H)-one] was tested, and the IC50 [1] was > 100 µM, the “Inh. (%) of Wee1 kinase enzyme activity” value ([2]; C 1 μm compound) was 4% and the IC50 [3] was > 10 µM.
In the case of `C[C@@H]1CN(c2ccc(Nc3ncc4c(n3)N3CCN=C3N(c3c(F)cccc3Cl)C4=O)c(C(F)(F)F)c2)C[C@H](C)N1C` [Example 41, 6-(2-Chloro-6-fluorophenyl)-2-((2-trifluoromethyl-4-((3S,5R)-3,4,5-trimethylpiperazin-1-yl)phenyl)amino)-8,9-dihydroimidazo[1,2-a]pyrimido[5,4-e]pyrimidin-5(6H)-one], the IC50 [1] is reported as > 100 µM, the “Inh. (%) of Wee1 kinase enzyme activity” value ([2]; C 1 μm compound) is reported as 2% and the IC50 [3] is reported as > 10 µM.
For `Cc1cc(N2CCN(C)CC2)ccc1Nc1ncc2c(n1)N1CCN=C1N(c1c(F)cccc1Cl)C2=O` [Example 42, 6-(2-Chloro-6-fluorophenyl)-2-((2-methyl-4-(4-methylpiperazin-1-yl)phenyl)amino)-8,9-dihydroimidazo[1,2-a]pyrimido[5,4-e]pyrimidin-5(6H)-one], the IC50 [1] was > 100 µM, the “Inh. (%) of Wee1 kinase enzyme activity” value ([2]; C 1 μm compound) was 19% and the IC50 [3] was > 10 µM.
`Cc1cc(N2C[C@@H](C)N(C)[C@@H](C)C2)ccc1Nc1ncc2c(n1)N1CCN=C1N(c1c(F)cccc1Cl)C2=O` [Example 43, 6-(2-Chloro-6-fluorophenyl)-2-((2-methyl-4-((3S,5R)-3,4,5-trimethylpiperazin-1-yl)phenyl)amino)-8,9-dihydroimidazo[1,2-a]pyrimido[5,4-e]pyrimidin-5(6H)-one] was tested, and the IC50 [1] was > 100 µM, the “Inh. (%) of Wee1 kinase enzyme activity” value ([2]; C 1 μm compound) was 27% and the IC50 [3] was > 10 µM.
